Values joined by “and” are separate entries in the source; they are usually repeats but may differ in a detail not shown here. Equal values may be shown once.
Legend:
[1] = tested on: rat gastric mucosal-derived cancer cells (RGK-KO) versus rat gastric mucosal-derived cells (RGM-GFP); assay: Cellular intake of ^15N_5-ALA by cancer cells and normal cells, quantitated by 4.43 MeV gamma rays from the ^15N resonance nuclear reaction; type: cell-based; settings: 24 hours after the addition of ^15N_5-ALA; 1 mmol/L in culture medium; RGK-KO vs RGM-GFP
Description: Rat gastric mucosal-derived cells (RGM-GFP) were prepared as normal cells and rat gastric mucosal-derived cancer cells (RGK-KO) were prepared as cancer cells, and the difference in cellular intake of ^15N_5-ALA between the RGM-GFP cells and RGK-KO cells was confirmed as follows. The rat gastric mucosal-derived cells and rat gastric mucosal-derived cancer cells are both derived from the rat and are widely used in research on anticancer agents because they have the same gene sequence (refer to Non-Patent Documents 6 and 7).
The RGM-GFP cells and RGK-KO cells were cultured for 3 or 4 days on a culture solution adapted to each and were grown to 80% confluence; this was followed by the addition of ^15N_5-ALA and the amount of ^15N intake per cell with elapsed time was measured. […] The cells, which had grown with attachment to the bottom of the Petri dish, were detached from the Petri dish by the addition of trypsin, and the concentration of the liberated cells was measured.
The concentration was adjusted, and 10^5 cells/2 μL was dripped onto a crystalline silicon substrate and drying was carried out. […] The 4.43 MeV gamma radiation emitted by this resonance nuclear reaction with ^15N was measured using a Bi4Ge3O12 (BGO) detector. […]
The specific procedure for quantitating the ^15N_5-ALA intake by the RGM-GFP cells and RGK-KO cells was as follows. […]

[2] = tested on: RGK-KO cells; assay: Proton beam irradiation of RGK-KO cells cultured on ^15N_5-ALA-containing culture medium, surviving fraction by fluorescent protein image and DAPI staining; type: cell-based, rat; settings: ^15N_5-ALA in medium 24 hours before irradiation, charge amount 4.0 nC, 1.3 MeV
From the text: The RGK-KO cells and RGM-GFP cells cultured on a culture medium containing ^15N_5-ALA and the RGK-KO cells and RGM-GFP cells cultured on a culture medium not containing ^15N_5-ALA were in each instance held sealed in a vacuum along with the culture medium and were irradiated with a proton beam at a prescribed ion charge amount. With regard to the proton beam energy, considering the attenuation of the proton beam energy by the Torelina film and the culture solution sealed in the vacuum, the sample was irradiated at 1.3 MeV to match the 1.21 MeV resonance energy.
The upper sections show images of RGM-GFP cells made to metabolize a fluorescent protein by genetic recombination; the lower sections each show photographs in which the dead cells are identified by the DAPI staining method, which stains the DNA in the nucleus of dead cells. […]
The photographs in FIG. 20 show the case of a proton beam irradiation amount of charge of 4.0 nC for both cells. Genes for the metabolism of fluorescent protein are also incorporated in the RGK-KO cells, and the cells present a red color when observed with a fluorescence microscope. […]

SMILES: [15NH2]CC(=O)CCC(=O)O [^15N_5-ALA, 5-aminolevulinic acid in which the nitrogen is nitrogen-15]
- intake of ^15N_5-ALA by cancer cells relative to the intake by the normal cells [1]: at least 5 times
- surviving fraction immediately after (within three hours) proton beam irradiation [2]: 73.5% and 85.5%

Reference: US20240424103A1, “ANTICANCER AGENT, PRODRUG OF ANTICANCER AGENT, METHOD FOR KILLING CANCER CELL IN VITRO, CANCER […], AND CANCER TREATMENT DEVICE” (NATIONAL INSTITUTE OF ADVANCED INDUSTRIAL SCIENCE AND …, priority 2021, published 2024)
